Source: the supplement of paper PMC10307832

Columns and labels:
Experiment in all cases: relative viability (nuclei count vs DMSO), 5 days (fraction); higher = more cells survive
[1] = compound: C1=CC2=NC=CN=C2C=C1/C=C/3\C(=O)NC(=O)S3 + Cc1cc(Nc2cc(N3CCN(C)CC3)nc(Sc3ccc(NC(=O)C4CC4)cc3)n2)n[nH]1 [Tozasertib] (partner 0.1 µM)
Summary of the method: (§1)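 Values are medians from duplicate plates. Each reflects relative viability, defined as the nuclei count of treated wells over that of vehicle wells. Lung cancer cell lines in 1536-well plates were pin-tool dosed one day after seeding with one drug alone or with a fixed anchor-drug dose plus five library-drug doses (not always all listed) in √10 steps, then fixed, stained and imaged at 4× after 5 days.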

BGJ398 + Crizotinib = compound: CCN1CCN(c2ccc(Nc3cc(N(C)C(=O)Nc4c(Cl)c(OC)cc(OC)c4Cl)ncn3)cc2)CC1 [BGJ398] + C[C@@H](Oc1cc(-c2cnn(C3CCNCC3)c2)cnc1N)c1c(Cl)ccc(F)c1Cl [Crizotinib] (partner 1 µM)
Summary of the method: as §1

BGJ398 + Navitoclax = compound: CCN1CCN(c2ccc(Nc3cc(N(C)C(=O)Nc4c(Cl)c(OC)cc(OC)c4Cl)ncn3)cc2)CC1 [BGJ398] + CC1(C)CCC(c2ccc(Cl)cc2)=C(CN2CCN(c3ccc(C(=O)NS(=O)(=O)c4ccc(N[C@H](CCN5CCOCC5)CSc5ccccc5)c(S(=O)(=O)C(F)(F)F)c4)cc3)CC2)C1 [Navitoclax] (partner 0.5 µM)
Summary of the method: as §1

BGJ398 + Pemetrexed = compound: CCN1CCN(c2ccc(Nc3cc(N(C)C(=O)Nc4c(Cl)c(OC)cc(OC)c4Cl)ncn3)cc2)CC1 [BGJ398] + Nc1nc2[nH]cc(CCc3ccc(C(=O)N[C@@H](CCC(=O)O)C(=O)O)cc3)c2c(=O)[nH]1 [Pemetrexed] (partner 0.2 µM)
Summary of the method: as §1

| Cell Line | relative viability ([1]; first compound 0.02 µM) | relative viability ([1]; first compound 0.06325 µM) | relative viability ([1]; first compound 0.2 µM) | relative viability ([1]; first compound 0.6325 µM) | relative viability ([1]; first compound 2 µM) | relative viability (BGJ398 + Crizotinib; first compound 0.01 µM) | relative viability (BGJ398 + Crizotinib; first compound 0.03162 µM) | relative viability (BGJ398 + Crizotinib; first compound 0.1 µM) | relative viability (BGJ398 + Crizotinib; first compound 0.3162 µM) | relative viability (BGJ398 + Crizotinib; first compound 1 µM) | relative viability (BGJ398 + Navitoclax; first compound 0.01 µM) | relative viability (BGJ398 + Navitoclax; first compound 0.03162 µM) | relative viability (BGJ398 + Navitoclax; first compound 0.1 µM) | relative viability (BGJ398 + Navitoclax; first compound 0.3162 µM) | relative viability (BGJ398 + Navitoclax; first compound 1 µM) | relative viability (BGJ398 + Pemetrexed; first compound 0.01 µM) | relative viability (BGJ398 + Pemetrexed; first compound 0.03162 µM) | relative viability (BGJ398 + Pemetrexed; first compound 0.1 µM) | relative viability (BGJ398 + Pemetrexed; first compound 0.3162 µM) | relative viability (BGJ398 + Pemetrexed; first compound 1 µM) |
| --- | --- | --- | --- | --- | --- | --- | --- | --- | --- | --- | --- | --- | --- | --- | --- | --- | --- | --- | --- | --- |
| HCC-44 | 0.896 | 0.875 | 0.947 | 0.874 | 0.605 | 0.751 | 0.738 | 0.86 | 0.817 | 0.701 | 0.797 | 0.91 | 1.13 | 1.06 | 0.866 | 0.6 | 0.67 | 0.656 | 0.649 | 0.654 |
| HCC-827 | 0.403 | 0.446 | 0.417 | 0.38 | 0.472 | 0.964 |  | 0.92 | 0.973 | 0.938 | 0.935 |  | 1.03 | 1.02 | 1.02 | 0.254 |  | 0.277 | 0.184 | 0.272 |
| NCI-H1623 | 0.405 | 0.413 | 0.473 | 0.403 | 0.38 |  |  |  |  |  |  |  |  |  |  |  |  |  |  |  |
| NCI-H2347 | 0.553 | 0.554 | 0.546 | 0.633 | 0.601 | 0.593 | 0.878 | 0.728 | 0.962 | 0.698 | 0.671 | 0.939 | 0.828 | 0.835 | 0.777 | 0.4 | 0.462 | 0.427 | 0.43 | 0.375 |
| PC-14 | 0.579 | 0.754 | 0.571 | 0.546 | 0.572 | 0.925 | 0.883 | 0.859 | 0.937 | 0.898 | 1.01 | 1.05 | 1.06 | 1.04 | 0.998 | 0.13 | 0.132 | 0.131 |  | 0.151 |
| NCI-H1651 | 0.827 | 0.62 | 0.664 | 0.608 | 0.61 | 0.843 | 0.865 | 0.874 | 0.876 | 0.892 | 0.988 | 1.18 | 0.978 | 0.961 | 0.991 | 0.544 | 0.542 | 0.615 | 0.588 | 0.423 |
| HARA | 0.0982 | 0.133 | 0.128 | 0.104 | 0.11 | 0.953 | 1.06 | 1.04 | 1.02 | 1.07 | 1.11 | 1.14 | 1.19 | 1.13 | 1.05 | 0.237 | 0.22 | 0.215 | 0.273 | 0.248 |
| NCI-H1650 | 0.434 | 0.446 | 0.459 | 0.375 | 0.411 | 0.955 | 1.01 | 0.862 | 0.879 | 0.937 | 0.859 | 1.04 | 0.649 | 0.699 | 0.817 | 0.391 | 0.361 | 0.354 | 0.295 | 0.319 |
| NCI-H1395 | 0.725 | 0.794 | 0.777 | 0.729 | 0.809 |  |  |  |  |  | 1.08 | 1.36 | 1.13 | 0.996 | 0.848 | 0.827 | 0.82 | 0.77 | 0.559 | 0.524 |
